Experiments:
[1] = target: β-glucuronidase activity in living E. coli cells (Escherichia coli, UniProt P05804); assay type: cell-based; design: The full-length E. coli β-glucuronidase gene was obtained from bacterial genomic DNA; expressed in transfected cells; host or cells: E. coli HB101 transformed with pET-28a-GUS
From the text: (§1) Thus, two other β-glucuronidase activity assays were employed to examine the potency of inhibitors both in vitro and in cell-based studies. An absorbance assay based on the conversion of p-nitrophenyl glucuronide (PNPG) to p-nitrophenol (PNP) (Szasz (1967) Clin Chem 13:752-759), which absorbs at 410 nm, was employed as the primary in vitro assay (FIG. 9). A secondary assay involving the conversion of phenolphthalein glucuronide (PheG) to phenolphthalein (Phe), which absorbs at 540 nm, was also employed (FIG. 9). Id.
HB101 E. coli cells were grown to an OD600 of 0.6 in LB medium. These cells were then used for an in vivo assay. Reaction time and temperature were the same as previously described (see In Vitro β-Glucuronidase Assays). […] Absorbance was measured at the appropriate wavelength, depending on the substrate. […]
HB101 E. coli cells, transformed with the pET-28a vector containing the β-Glucuronidase gene, were grown to an OD600 of 0.6 in LB medium. […] Absorbance was measured at the appropriate wavelength, either 410 nm or 540 nm. Cell survivability in the presence of the nine inhibitors was assessed by plating a 10^−5 dilution of 200 μl of saturated cells after incubation with 100 μM of each inhibitor for 6 hours. […] Plated cells were allowed to incubate at 37° C. overnight, and colonies were counted to quantify the viability of the cells.

E. coli β-glucuronidase = E. coli β-glucuronidase (Escherichia coli, UniProt P05804); assay type: biochemical; design: The full-length E. coli β-glucuronidase gene was obtained from bacterial genomic DNA; 6xHis (N); made in house; host or cells: E. coli BL21-DE3; conditions: in vitro, using PNPG
E. coli β-glucuronidase, sequence (P05804 whole entry): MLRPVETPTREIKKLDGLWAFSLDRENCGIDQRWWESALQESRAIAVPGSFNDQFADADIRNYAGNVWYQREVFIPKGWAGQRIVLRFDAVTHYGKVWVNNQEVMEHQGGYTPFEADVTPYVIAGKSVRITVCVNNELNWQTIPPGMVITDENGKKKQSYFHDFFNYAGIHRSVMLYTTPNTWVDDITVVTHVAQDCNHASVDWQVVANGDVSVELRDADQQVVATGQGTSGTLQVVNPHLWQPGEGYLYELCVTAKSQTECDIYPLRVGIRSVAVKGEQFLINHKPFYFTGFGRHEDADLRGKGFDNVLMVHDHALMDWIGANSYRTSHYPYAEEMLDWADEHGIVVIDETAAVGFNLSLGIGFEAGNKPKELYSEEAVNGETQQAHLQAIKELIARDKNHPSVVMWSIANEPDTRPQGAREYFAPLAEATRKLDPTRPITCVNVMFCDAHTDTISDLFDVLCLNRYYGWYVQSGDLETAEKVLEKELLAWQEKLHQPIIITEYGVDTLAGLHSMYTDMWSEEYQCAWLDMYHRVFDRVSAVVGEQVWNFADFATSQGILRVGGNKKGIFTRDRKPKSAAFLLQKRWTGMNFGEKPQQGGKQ
From the text: as §1
In vitro assays were conducted at 50 μL total volume in 96-well, clear bottom assay plates (Costar). Substrates consisted of PNPG or PheG (FIG. 9) and were acquired from Sigma. The presence of the hydrolysis product of each, PNP or Phe, was measured by absorbance at 410 nm or 540 nm, respectively. […] Absorbance was measured using a PHERAstar Plus microplate reader (BMG Labtech).
In vitro assays were conducted at 50 μL total volume in 96-well, clear bottom assay plates (Costar). […] The presence of the hydrolysis product of each, p-nitrophenol (PNP) and phenolphthalein (Phe), was measured by absorbance at 410 nm or 540 nm, respectively. […] Absorbance was measured using a PHERAstar Plus microplate reader (BMG Labtech). Data acquired was analyzed using Microsoft Excel and Sigmaplot 11.0.

diarrhea = conditions: rats, literature (Fittkau et al. 2004); cited from earlier work

β-glucuronidase activity in living E. coli cells, sequence (P05804 whole entry): as above

Row | Compound | efficacy in living cells [1] | IC50 (E. coli β-glucuronidase) [µM] | reversal of CPT-11 diarrhea / epithelial cell death (diarrhea)
1 | O=C(O)[C@H]1NC(=O)[C@H](O)[C@@H](O)[C@@H]1O [GDL, glucaro-δ-lactam, reference compound] | ineffective | 45 ± 3.1 | –
2 | O=C1OC(C(O)C(=O)O)C(O)C1O (stereo not drawn) [saccharic acid 1,4-lactone] | – | – | partially reversed

Reference: US9334288B2, “Selective β-glucuronidase inhibitors as a treatment for side effects of camptothecin antineoplastic agents” (The University of North Carolina at Chapel Hill, priority 2009, dated 2016)
